Source: patent US12371454B2, “Cyclic peptide compound having Kras inhibitory action” (priority 2019, dated 2025)
Starred links: 1 amine or outer side, 2 acyl side, 3 side chain; linkers in the order of their positions; H or OH if unused. Positions of bridges follow the written chain, without caps; N, C: chain ends. Non-standard residues stand in square brackets, D forms with d. Residues, ends and D or L forms follow the SMILES beside them. *: point of attachment. hPhe(3,5-F2-4-CF3) = N[C@@H](CCc1cc(F)c(C(F)(F)F)c(F)c1)C(=O)O; hPhe(3-Cl-4-CF3) = N[C@@H](CCc1ccc(C(F)(F)F)c(Cl)c1)C(=O)O; hPhe(3-F,4-CF3) = N[C@@H](CCc1ccc(C(F)(F)F)c(F)c1)C(=O)O; NMePhe(4-CF3) = CN[C@@H](Cc1ccc(C(F)(F)F)cc1)C(=O)O; X5 = CC(C)(C)NC(=O)COC[C@H](CC(=O)[*:1])N[*:2]; NMePhe(4-Cl) = CN[C@@H](Cc1ccc(Cl)cc1)C(=O)O; NEtPhe(2-Cl) = CCN[C@@H](Cc1ccccc1Cl)C(=O)O; NMePhe(4-Me) = CN[C@@H](Cc1ccc(C)cc1)C(=O)O; NMePhe(2-Cl) = CN[C@@H](Cc1ccccc1Cl)C(=O)O; hPhe(4-Cl) = N[C@@H](CCc1ccc(Cl)cc1)C(=O)O; NMedβ3hAla = C[C@H](CC(=O)[*:2])N(C)[*:1]; NMeGly(cPent) = CN[C@H](C(=O)O)C1CCCC1; Phe(3-I) = N[C@@H](Cc1cccc(I)c1)C(=O)O; Pro(4,4-F2) = O=C(O)[C@@H]1CC(F)(F)CN1; X10 = CC(C)=CC[C@H](N[*:1])C(=O)[*:2]; NMeCha = CN[C@@H](CC1CCCCC1)C(=O)O; NMeChg = CN[C@H](C(=O)O)C1CCCCC1; NMeI = CC[C@H](C)[C@H](NC)C(=O)O; N(CH2CH2)2CF2 = FC1(F)CCN(*)CC1; NMeD = CN[C@@H](CC(=O)O)C(=O)O; NMeL = CN[C@@H](CC(C)C)C(=O)O; NMeV = CN[C@H](C(=O)O)C(C)C; d(β3hA) = C[C@@H](N)CC(=O)O; NMeS = CN[C@@H](CO)C(=O)O; NMeA = CN[C@@H](C)C(=O)O; NMeAib = CNC(C)(C)C(=O)O; Piperidide = C1CCN(*)CC1; Pyrrolidide = C1CCN(*)C1; dNMeA = CN[C@H](C)C(=O)O; Ac5c = NC1(C(=O)O)CCCC1; Aze = O=C(O)[C@@H]1CCN1; Thp = NC1(C(=O)O)CCOCC1; Ac4c = NC1(C(=O)O)CCC1; CH2CMe2OH = CC(C)(O)C*; Aib = CC(C)(N)C(=O)O; Isopentyl = CC(C)CC*; NEtG = CCNCC(=O)O; Sar = CNCC(=O)O

Each molecule was assayed against T1, Kras and SOS1 (biotin-tagged human Kras loaded with GDP, His-tagged human SOS1) (Homo sapiens, UniProt P01116, G12D) (assay: Protein-protein interaction inhibition between Kras and SOS1 (KrasGl2D-SOS PPI) using AlphaScreen). Conditions: AlphaScreen; biotin-tagged human Kras loaded with GDP, His-tagged human SOS1; read-out: KRAS G12D-SOS PPI IC50.
T1 construct: made in house; host or cells: E. coli (stated for Kras only)
Assay type: binding
Outline: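 Binding between SOS1 and Kras is detected as bead-proximity luminescence: illuminate Ni-conjugated donors (680 nm), collect 520-620 nm emission from streptavidin-conjugated acceptors; Kras carries biotin and GDP loaded after purification, SOS1 carries a His tag.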

T1 sequence (P01116 1-188 isoform P01116-2 G12D): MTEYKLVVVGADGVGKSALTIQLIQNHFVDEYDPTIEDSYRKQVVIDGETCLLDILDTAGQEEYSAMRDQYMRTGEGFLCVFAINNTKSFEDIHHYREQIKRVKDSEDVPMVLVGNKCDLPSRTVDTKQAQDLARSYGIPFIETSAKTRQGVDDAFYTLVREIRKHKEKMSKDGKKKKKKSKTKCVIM

In order of rising IC50:
1. CC[C@H](C)[C@@H]1NC(=O)[C@H](CC(C)C)N(C)C(=O)C[C@@H](C(=O)N2CCCC2)N(C)C(=O)[C@H](C2CCCCC2)N(C)C(=O)C2(CCC2)NC(=O)[C@@H]2CC(F)(F)CN2C(=O)[C@H](CCc2cc(F)c(C(F)(F)F)c(F)c2)NC(=O)CN(C)C(=O)[C@H](CC2CCCCC2)N(C)C(=O)CN(C)C(=O)CN(C)C1=O [Compound 1192] ([NMeL]I[Sar][Sar][NMeCha][Sar][hPhe(3,5-F2-4-CF3)][Pro(4,4-F2)][Ac4c][NMeChg][NMeD]-Pyrrolidide; lactam N-11)  0.39 nM
2. CC[C@H](C)[C@@H]1NC(=O)[C@H](C)N(C)C(=O)C[C@@H](C(=O)N2CCCCC2)N(C)C(=O)[C@H](C(C)C)N(C)C(=O)C(C)(C)N(C)C(=O)[C@@H]2CCCN2C(=O)[C@H](CCc2ccc(C(F)(F)F)c(Cl)c2)NC(=O)CN(C)C(=O)[C@H](CC2CCCCC2)N(C)C(=O)CN(C)C(=O)CN(C)C1=O [Compound 507] ([NMeA]I[Sar][Sar][NMeCha][Sar][hPhe(3-Cl-4-CF3)]P[NMeAib][NMeV][NMeD]-Piperidide; lactam N-11)  0.48 nM
3. COC[C@@H]1NC(=O)[C@H](CC(C)C)N(C)C(=O)C[C@@H](C(=O)N2CCCCC2)N(C)C(=O)[C@H](C2CCCCC2)N(C)C(=O)C2(CCCC2)NC(=O)[C@@H]2CCCN2C(=O)[C@H](CCc2ccc(C(F)(F)F)c(Cl)c2)NC(=O)CN(C)C(=O)[C@H](CC2CCCCC2)N(C)C(=O)CN(C)C(=O)CN(C)C1=O [Compound 148] ([NMeL]S(Me)[Sar][Sar][NMeCha][Sar][hPhe(3-Cl-4-CF3)]P[Ac5c][NMeChg][NMeD]-Piperidide; lactam N-11)  1.8 nM
4. CC[C@H](C)[C@@H]1NC(=O)[C@H](CC(C)C)N(C)C(=O)C[C@@H](C)N(C)C(=O)[C@H]([C@@H](C)CC)N(C)C(=O)C2(CCCC2)NC(=O)[C@@H]2CC(F)(F)CN2C(=O)[C@H](CCc2cc(F)c(C(F)(F)F)c(F)c2)NC(=O)CN(C)C(=O)[C@H](Cc2ccc(C(F)(F)F)cc2)N(C)C(=O)[C@@H]2CCN2C(=O)[C@H](C)N(C)C1=O [Compound 863] (cyclo([Ac5c][NMeI][NMedβ3hAla][NMeL]I[NMeA][Aze][NMePhe(4-CF3)][Sar][hPhe(3,5-F2-4-CF3)][Pro(4,4-F2)]))  2.5 nM
5. CC[C@H](C)[C@@H]1NC(=O)[C@H](CC(C)C)N(C)C(=O)C[C@@H](C(=O)N2CCCCC2)N(C)C(=O)[C@H](CC(C)C)N(C)C(=O)C(C)(C)NC(=O)[C@H](COCC(C)(C)O)N(C)C(=O)[C@H](CCc2ccc(C(F)(F)F)c(F)c2)NC(=O)CN(C)C(=O)[C@H](COCCC(C)C)N(C)C(=O)CN(C)C(=O)CN(C)C1=O [Compound 1532] ([NMeL]I[Sar][Sar][NMeS](Isopentyl)[Sar][hPhe(3-F,4-CF3)][NMeS](CH2CMe2OH)[Aib][NMeL][NMeD]-Piperidide; lactam N-11)  4.8 nM
6. COC[C@@H]1NC(=O)[C@H](CC(C)C)N(C)C(=O)C[C@@H](C(=O)N2CCCCC2)N(C)C(=O)[C@H](C(C)C)N(C)C(=O)C2(CCCC2)NC(=O)[C@@H]2CCCN2C(=O)[C@H](CCc2ccc(C(F)(F)F)c(Cl)c2)NC(=O)CN(C)C(=O)[C@H](CC2CCCCC2)N(C)C(=O)[C@@H]2CCN2C(=O)[C@H](C)N(C)C1=O [Compound 7] ([NMeL]S(Me)[NMeA][Aze][NMeCha][Sar][hPhe(3-Cl-4-CF3)]P[Ac5c][NMeV][NMeD]-Piperidide; lactam N-11)  18 nM
7. CC[C@H](C)[C@@H]1NC(=O)[C@H](CC(C)C)N(C)C(=O)C[C@@H](COCC(=O)NC(C)(C)C)NC(=O)[C@H](C(C)C)N(C)C(=O)C2(CCCC2)NC(=O)[C@@H]2CCCN2C(=O)[C@H](CCc2ccc(C(F)(F)F)c(Cl)c2)NC(=O)CN(C)C(=O)[C@H](CC2CCCCC2)N(C)C(=O)CN(C)C(=O)CN(C)C1=O [Compound 955] ([NMeL]I[Sar][Sar][NMeCha][Sar][hPhe(3-Cl-4-CF3)]P[Ac5c][NMeV]; linker N-C via X5)  26 nM
8. CC[C@H](C)[C@@H]1NC(=O)[C@H](CC(C)C)N(C)C(=O)C[C@@H](C(=O)N2CCCCC2)N(C)C(=O)[C@H](C(C)C)N(C)C(=O)C2(CCOCC2)NC(=O)[C@@H]2CCCN2C(=O)[C@H](CCc2ccc(Cl)cc2)NC(=O)CN(C)C(=O)[C@H](CC2CCCCC2)N(C)C(=O)CN(C)C(=O)CN(C)C1=O [Compound 448] ([NMeL]I[Sar][Sar][NMeCha][Sar][hPhe(4-Cl)]P[Thp][NMeV][NMeD]-Piperidide; lactam N-11)  91 nM
9. CC[C@H](C)[C@@H]1NC(=O)[C@H](C)N(C)C(=O)C[C@@H](C(=O)N2CCCCC2)N(C)C(=O)[C@H](C(C)C)N(C)C(=O)[C@H](CC(C)C)NC(=O)[C@H](CC(=O)N2CCC(F)(F)CC2)N(C)C(=O)[C@H](CCc2ccc(C(F)(F)F)c(Cl)c2)NC(=O)CN(C)C(=O)[C@H](CC2CCCCC2)N(C)C(=O)CN(C)C(=O)CN(C)C1=O [Compound 826] ([NMeA]I[Sar][Sar][NMeCha][Sar][hPhe(3-Cl-4-CF3)][NMeD](N(CH2CH2)2CF2)L[NMeV][NMeD]-Piperidide; lactam N-11)  110 nM
10. CC[C@H](C)[C@@H]1NC(=O)[C@H](C)N(C)C(=O)C[C@@H](C)NC(=O)[C@H](C2CCCC2)N(C)C(=O)C2(CCCC2)NC(=O)[C@@H]2CCCN2C(=O)[C@H](CCc2ccc(C(F)(F)F)c(Cl)c2)NC(=O)[C@H]2CCCN2C(=O)[C@H](Cc2ccc(C)cc2)N(C)C(=O)[C@@H]2CCN2C(=O)CN(C)C1=O [Compound 1494] (cyclo([Ac5c][NMeGly(cPent)][d(β3hA)][NMeA]I[Sar][Aze][NMePhe(4-Me)][dP][hPhe(3-Cl-4-CF3)]P))  140 nM
11. CC[C@H](C)[C@@H]1NC(=O)[C@H](CC(C)C)N(C)C(=O)C[C@@H](C)N(C)C(=O)[C@H](CC(C)C)NC(=O)C(C)(C)N(C)C(=O)[C@H](CC=C(C)C)NC(=O)[C@H](Cc2cccc(I)c2)NC(=O)CN(C)C(=O)[C@H](Cc2ccc(Cl)cc2)N(C)C(=O)[C@@H]2CCN2C(=O)CN(C)C1=O [Compound 1408] (cyclo([Aze][NMePhe(4-Cl)][Sar][Phe(3-I)][X10][NMeAib]L[NMedβ3hAla][NMeL]I[Sar]))  160 nM
12. CC[C@H](C)[C@@H]1NC(=O)[C@H](CC(C)C)N(C)C(=O)C[C@@H](C)NC(=O)[C@H](CC(C)C)N(C)C(=O)C(C)(C)NC(=O)[C@H](COCC(C)(C)O)N(C)C(=O)[C@H](CCc2ccc(C(F)(F)F)c(Cl)c2)NC(=O)CN(C)C(=O)[C@H](COCCC(C)C)N(C)C(=O)CN(CC)C(=O)CN(C)C1=O [Compound 1484] (cyclo([Aib][NMeL][d(β3hA)][NMeL]I[Sar][NEtG][NMeS](Isopentyl)[Sar][hPhe(3-Cl-4-CF3)][NMeS](CH2CMe2OH)))  190 nM
13. CC[C@H](C)[C@@H]1NC(=O)[C@H](C)N(C)C(=O)C[C@@H](C)NC(=O)[C@H](C2CCCC2)N(C)C(=O)C2(CCCC2)NC(=O)[C@@H]2CCCN2C(=O)[C@H](CCc2ccc(C(F)(F)F)c(Cl)c2)NC(=O)[C@@H](C)N(C)C(=O)[C@H](Cc2ccccc2Cl)N(C)C(=O)CN(C)C(=O)CN(C)C1=O [Compound 539] (cyclo([Ac5c][NMeGly(cPent)][d(β3hA)][NMeA]I[Sar][Sar][NMePhe(2-Cl)][dNMeA][hPhe(3-Cl-4-CF3)]P))  190 nM
14. CC[C@H](C)[C@@H]1NC(=O)[C@H](C)N(C)C(=O)C[C@@H](C(=O)N2CCCC2)N(C)C(=O)[C@H](C(C)C)N(C)C(=O)C2(CCCC2)NC(=O)[C@H](Cc2ccccc2Cl)N(CC)C(=O)[C@H](CCc2ccc(C(F)(F)F)c(Cl)c2)NC(=O)CN(C)C(=O)[C@H](CC2CCCCC2)N(C)C(=O)CN(C)C(=O)CN(C)C1=O [Compound 2162] ([NMeA]I[Sar][Sar][NMeCha][Sar][hPhe(3-Cl-4-CF3)][NEtPhe(2-Cl)][Ac5c][NMeV][NMeD]-Pyrrolidide; lactam N-11)  200 nM
